Measured values reported in patent US20210198277A1, “AMINE-SUBSTITUTED ARYL OR HETEROARYL COMPOUNDS” (Epizyme, Inc., priority 2016, published 2021).
Where two headings read alike, the source gives them in different places.

Target: T1, EHMT1 (Homo sapiens, UniProt Q9H9B1)
T1 sequence (Q9H9B1 1-1298): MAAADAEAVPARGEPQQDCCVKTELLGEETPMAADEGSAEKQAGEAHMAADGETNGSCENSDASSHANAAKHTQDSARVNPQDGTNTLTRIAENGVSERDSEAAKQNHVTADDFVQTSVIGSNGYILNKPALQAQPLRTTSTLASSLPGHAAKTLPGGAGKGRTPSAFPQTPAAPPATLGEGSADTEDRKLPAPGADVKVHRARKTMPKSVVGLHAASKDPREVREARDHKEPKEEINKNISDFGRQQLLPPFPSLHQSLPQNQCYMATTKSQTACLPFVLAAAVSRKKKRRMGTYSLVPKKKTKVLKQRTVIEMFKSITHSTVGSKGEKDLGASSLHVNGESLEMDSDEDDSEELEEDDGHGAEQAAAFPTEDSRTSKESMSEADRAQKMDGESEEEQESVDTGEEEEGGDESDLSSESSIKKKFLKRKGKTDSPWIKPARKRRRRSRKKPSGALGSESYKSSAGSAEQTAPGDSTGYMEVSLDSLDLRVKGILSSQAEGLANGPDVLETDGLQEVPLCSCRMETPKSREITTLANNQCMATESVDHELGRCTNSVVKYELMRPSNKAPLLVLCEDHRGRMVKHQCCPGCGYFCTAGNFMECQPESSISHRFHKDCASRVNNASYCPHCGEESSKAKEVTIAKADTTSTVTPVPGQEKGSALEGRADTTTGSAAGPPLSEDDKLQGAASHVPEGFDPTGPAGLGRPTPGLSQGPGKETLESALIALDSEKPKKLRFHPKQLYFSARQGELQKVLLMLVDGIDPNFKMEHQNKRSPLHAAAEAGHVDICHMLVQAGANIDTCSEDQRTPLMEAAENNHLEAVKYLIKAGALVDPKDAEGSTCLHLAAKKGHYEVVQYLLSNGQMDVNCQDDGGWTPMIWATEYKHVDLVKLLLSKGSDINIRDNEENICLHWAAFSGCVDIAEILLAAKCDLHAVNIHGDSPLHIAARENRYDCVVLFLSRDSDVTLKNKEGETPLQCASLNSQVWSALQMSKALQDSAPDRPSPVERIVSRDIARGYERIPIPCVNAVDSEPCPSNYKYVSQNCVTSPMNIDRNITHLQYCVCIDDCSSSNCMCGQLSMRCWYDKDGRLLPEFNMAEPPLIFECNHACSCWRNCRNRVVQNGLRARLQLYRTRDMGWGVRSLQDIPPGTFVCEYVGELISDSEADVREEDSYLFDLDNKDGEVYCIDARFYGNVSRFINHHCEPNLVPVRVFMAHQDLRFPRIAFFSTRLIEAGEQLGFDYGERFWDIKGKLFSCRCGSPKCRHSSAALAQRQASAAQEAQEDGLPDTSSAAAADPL
Test: EHMT1 enzyme assay on peptide substrate (EHMT1 PEP)
Assay type: biochemical
Details: read-out: EHMT1 PEP IC50

Row | SMILES | IC50 (Table VI) | IC50 (Table VII)
1 | CNc1cc2sccc2c(Nc2cc(OCCCN3CCCC3)c(OC)cn2)n1 [Compound 609] | 100 to 1000 nM | –
2 | CNc1cc(C)nc(Nc2ccc(OC)c(OC[C@H]3CCN(C(C)(C)C)C3)c2)n1 [Compound 610] | > 10000 nM | –
3 | CNc1nc(C2CCCCN2C)c2cc(OC)c(OCCCN3CCCC3)cc2n1 (stereo not shown) [Compound 747] | 100 to 1000 nM | –
4 | CNc1nc(C2CCN(C)C2)c2cc(OC)c(OCCCN3CCCC3)cc2n1 (stereo not shown) [Compound 748] | 100 to 1000 nM | –
5 | CNc1nc(C2CN(C)C2)c2cc(OC)c(OCCCN3CCCC3)cc2n1 [Compound 753] | < 100 nM | –
6 | COc1cc2c(C3CN(C)C3)nc(C)nc2cc1OCCCN1CCCC1 [Compound 754] | 1000 to 10000 nM | –
7 | COc1cc2c(C3CCN(C4CCOCC4)CC3)cc(C)nc2cc1OCCCN1CCCC1 [Compound 755] | < 100 nM | –
8 | COc1cc2c(C3CCN(C4CCOC4)CC3)cc(C)nc2cc1OCCCN1CCCC1 (stereo not shown) [Compound 756] | < 100 nM | –
9 | CNc1cc(C2CCN(C3CCOCC3)CC2)c2cc(OC)c(OCCCN3CCCC3)cc2n1 [Compound 757] | < 100 nM | –
10 | CNc1cc(C2CCN(C3CCOC3)CC2)c2cc(OC)c(OCCCN3CCCC3)cc2n1 (stereo not shown) [Compound 758] | < 100 nM | –
11 | CNc1nc(C2CCN(C3CCOC3)CC2)c2cc(OC)c(OCCCN3CCCC3)cc2n1 (stereo not shown) [Compound 759] | < 100 nM | –
12 | COc1cc2c(C3CCN(C4CCOC4)CC3)nc(C)nc2cc1OCCCN1CCCC1 (stereo not shown) [Compound 760] | 1000 to 10000 nM | –
13 | COc1cc2c(C)cc(N3CCOCC3)nc2cc1OCCCN1CCCC1 [Compound 761] | 1000 to 10000 nM | –
14 | COc1cc2c(C)nc(N3CCOCC3)nc2cc1OCCCN1CCCC1 [Compound 762] | > 10000 nM | –
15 | COc1cc2c(C#CCN3CCOCC3)cc(C)nc2cc1OCCCN1CCCC1 [Compound 763] | > 10000 nM | –
16 | CNc1cc(C#CCN2CCOCC2)cc2cc(OCCCN3CCCC3)c(OC)cc12 [Compound 784] | 1000 to 10000 nM | –

Row | SMILES | IC50 (Table VI) | IC50 (Table VII)
17 | COc1ccc(Nc2nc(C)cc(NC3CCCN(C)C3)n2)cc1OCCCN1CCCC1 (stereo not shown) [Compound 787] | < 100 nM | –
18 | COc1ccc(Nc2nc(C)cc(NC3CCCOC3)n2)cc1OCCCN1CCCC1 (stereo not shown) [Compound 788] | < 100 nM | –
19 | COc1ccc(Nc2nc(C)cc(NC3CCOC3)n2)cc1OCCCN1CCCC1 (stereo not shown) [Compound 789] | < 100 nM | –
20 | CNCC(C)(O)COc1cc(Nc2nccc(OC)n2)ccc1OC (stereo not shown) [Compound 1058] | – | > 10000 nM
21 | CNc1ccnc(Nc2ccc(OC)c(OC[C@H]3CN(C)CCO3)c2)n1 [Compound 1067] | – | > 10000 nM
22 | CCN1CCO[C@@H](COc2cc(Nc3nccc(NC)n3)ccc2OC)C1 [Compound 1068] | – | > 10000 nM
23 | CNc1ccnc(Nc2ccc(OC)c(OC[C@H]3CNCCO3)c2)n1 [Compound 1069] | – | 1000 to 10000 nM
24 | CNc1ccnc(Nc2ccc(OC)c(OC[C@@H]3CN(C)CCO3)c2)n1 [Compound 1070] | – | > 10000 nM
25 | CCN1CCO[C@H](COc2cc(Nc3nccc(NC)n3)ccc2OC)C1 [Compound 1071] | – | > 10000 nM
26 | CNc1ccnc(Nc2ccc(OC)c(OC[C@@H]3CNCCO3)c2)n1 [Compound 1072] | – | > 10000 nM
27 | CNc1ccnc(Nc2ccc(OC)c(OC[C@H](CN3CCCC3)OC)c2)n1 [Compound 1082] | – | 1000 to 10000 nM
28 | CNC[C@@H](COc1cc(Nc2nccc(NC)n2)ccc1OC)OC [Compound 1084] | – | > 10000 nM
29 | CNCC(C)COc1cc(Nc2nccc(NC)n2)ccc1OC (stereo not shown) [Compound 1086] | – | 1000 to 10000 nM
30 | CNc1ccnc(Nc2ccc(OC)c(OC[C@@H](C)CN3CCC3)c2)n1 [Compound 1092] | – | 1000 to 10000 nM
31 | CCN1CCC(O)(COc2cc(Nc3nccc(NC)n3)ccc2OC)C1 (stereo not shown) [Compound 1096] | – | > 10000 nM
32 | CNc1ccnc(Nc2ccc(OC)c(OCC3(O)CCN(C)C3)c2)n1 (stereo not shown) [Compound 1097] | – | 1000 to 10000 nM

Second part, the compound after the results:

Row | IC50 (Table VI) | IC50 (Table VII) | SMILES
33 | – | 100 to 1000 nM | CNc1cc2cc(OCCCN3CCCC3)c(OC)cc2cc1Cl [Compound 1043]
34 | – | < 100 nM | CNc1ccnc(Nc2ccc(OC)c(OC[C@H](O)CN3CCC3)c2)n1 [Compound 1047]
35 | – | < 100 nM | CNc1ccnc(Nc2cnc(OC)c(OCCCN3CCCC3)c2)n1 [Compound 1048]
36 | – | < 100 nM | CNc1cc(C2CCOCC2)c2cc(OC)c(C#CCN3CCCC3)cc2n1 [Compound 1049]
37 | – | < 100 nM | CNc1ccnc(Nc2cnc(OC)c(OCCCN3CCC3)c2)n1 [Compound 1050]
38 | – | < 100 nM | CNc1ccnc(Nc2cnc(OC)c(OC[C@@H]3CCN(C4CC4)C3)c2)n1 [Compound 1051]
39 | – | 100 to 1000 nM | CNCCCOc1cc(Nc2nccc(NC)n2)ccc1OC [Compound 1052]
40 | – | 100 to 1000 nM | CNCCCOc1cc(Nc2nccc(NC)n2)cnc1OC [Compound 1053]
41 | – | 100 to 1000 nM | CNC[C@@H](O)COc1cc(Nc2nccc(NC)n2)ccc1OC [Compound 1054]
42 | – | < 100 nM | CCN1CC[C@@H](COc2cc(Nc3nccc(NC)n3)ccc2OC)C1 [Compound 1055]
43 | – | < 100 nM | CNc1ccnc(Nc2ccc(OC)c(OC[C@@H]3CCN(C4CC4)C3)c2)n1 [Compound 1056]
44 | – | 100 to 1000 nM | CNc1ccnc(Nc2ccc(OC)c(OCC(C)(O)CN3CCC3)c2)n1 (stereo not shown) [Compound 1057]
45 | – | 100 to 1000 nM | CNc1ccnc(Nc2ccc(OC)c(OCCC(C)N3CCC3)c2)n1 (stereo not shown) [Compound 1060]
46 | – | 100 to 1000 nM | CNc1ccnc(Nc2ccc(OC)c(ONC[C@@H]3CCCN3)c2)n1 [Compound 1061]
47 | – | 1000 to 10000 nM | CNc1ccnc(Nc2ccc(OC)c(CNC[C@H]3CCCN3)c2)n1 [Compound 1062]
48 | – | 100 to 1000 nM | CNc1cc(C)nc(Nc2cnc(OC)c(CNCCN3CCCC3)c2)n1 [Compound 1063]
49 | – | < 100 nM | CNc1ccnc(Nc2cnc(OC)c(ONCCN3CCCC3)c2)n1 [Compound 1064]
50 | – | < 100 nM | CNc1ccnc(Nc2cnc(OC)c(OC[C@@H]3CCN(C)C3)c2)n1 [Compound 1065]
51 | – | 1000 to 10000 nM | CNC[C@H](COc1cc(Nc2nccc(NC)n2)ccc1OC)OC [Compound 1066]
52 | – | 100 to 1000 nM | CNc1ccnc(Nc2ccc(OC)c(OCCC(C)NC)c2)n1 (stereo not shown) [Compound 1073]
53 | – | 100 to 1000 nM | CNc1ccnc(Nc2ccc(OC)c(OCC[C@H]3CCCN3)c2)n1 [Compound 1074]

Row | IC50 (Table VI) | IC50 (Table VII) | SMILES
54 | – | < 100 nM | CNc1ccnc(Nc2ccc(OC)c(CNCCN3CCC3)c2)n1 [Compound 1075]
55 | – | 100 to 1000 nM | CNCCNCc1cc(Nc2nccc(NC)n2)ccc1OC [Compound 1076]
56 | – | 100 to 1000 nM | CNCCNCc1cc(Nc2nccc(NC)n2)cnc1OC [Compound 1077]
57 | – | < 100 nM | CNc1cc(C)nc(Nc2ccc(OC)c(OC[C@H](O)CN3CCC3)c2)n1 [Compound 1078]
58 | – | 100 to 1000 nM | CNc1cc(C)nc(Nc2ccc(OC)c(OC[C@H](O)CNC3CCC3)c2)n1 [Compound 1079]
59 | – | < 100 nM | CNCCNCc1cc(Nc2nc(C)cc(NC)n2)ccc1OC [Compound 1080]
60 | – | < 100 nM | CNc1cc(C)nc(Nc2ccc(OC)c(CNCCN3CCC3)c2)n1 [Compound 1081]
61 | – | 100 to 1000 nM | CNc1ccnc(Nc2ccc(OC)c(OC[C@@H](CN3CCCC3)OC)c2)n1 [Compound 1083]
62 | – | < 100 nM | CNc1ccnc(Nc2ccc(OC)c(OCC(C)CN3CCC3)c2)n1 (stereo not shown) [Compound 1085]
63 | – | 100 to 1000 nM | CNc1ccnc(Nc2ccc(OC)c(OCC[C@@H]3CCCN3)c2)n1 [Compound 1087]
64 | – | < 100 nM | CNc1cc(C)c2cc(OC)c(OC[C@H](C)CN3CCC3)cc2n1 [Compound 1088]
65 | – | < 100 nM | CNc1cc(C)nc(Nc2cnc(OC)c(OC[C@H](O)CN3CCC3)c2)n1 [Compound 1089]
66 | – | 100 to 1000 nM | CNCC(C)NCc1cc(Nc2nc(C)cc(NC)n2)ccc1OC (stereo not shown) [Compound 1090]
67 | – | < 100 nM | CNc1cc(C2CCOCC2)c2cc(OC)c(OCCCN3CC(O)C3)cc2n1 [Compound 1091]
68 | – | < 100 nM | CNc1ccnc(Nc2ccc(OC)c(OC[C@H](O)CN3CCC3)c2)n1 [Compound 1093]
69 | – | < 100 nM | CNc1cc(C)nc(Nc2ccc(OC)c(CNCCN3CC[C@@H](F)C3)c2)n1 [Compound 1094]
70 | – | 100 to 1000 nM | CNCCNC(C)c1cc(Nc2nc(C)cc(NC)n2)ccc1OC (stereo not shown) [Compound 1095]
71 | – | < 100 nM | CNc1ccnc(Nc2cnc(OC)c(OC[C@@H]3CCN(C4CCC4)C3)c2)n1 [Compound 1098]
72 | – | < 100 nM | CNc1cc(C)nc(Nc2ccc(OC)c(OC[C@H](O)CN3CC(C)C3)c2)n1 [Compound 1099]
73 | – | 100 to 1000 nM | CNc1cc(C)nc(Nc2ccc(OC)c(OC[C@H](O)CN3CC(C)C3)c2)n1 [Compound 1100]
